{
  "source": "BigSolDB 2.1",
  "data": [
    {"smiles": "COc1ccc(CC(=O)O)cc1", "values": [
      {"measurement": "solubility (mole fraction)", "setting": "in acetonitrile, 283.15 K", "value": 0.0423},
      {"measurement": "solubility (mole fraction)", "setting": "in acetonitrile, 288.15 K", "value": 0.0499},
      {"measurement": "solubility (mole fraction)", "setting": "in acetonitrile, 293.15 K", "value": 0.0587},
      {"measurement": "solubility (mole fraction)", "setting": "in acetonitrile, 298.15 K", "value": 0.0687},
      {"measurement": "solubility (mole fraction)", "setting": "in acetonitrile, 303.15 K", "value": 0.0803},
      {"measurement": "solubility (mole fraction)", "setting": "in acetonitrile, 308.15 K", "value": 0.0941},
      {"measurement": "solubility (mole fraction)", "setting": "in acetonitrile, 313.15 K", "value": 0.112},
      {"measurement": "solubility (mole fraction)", "setting": "in acetonitrile, 318.15 K", "value": 0.135},
      {"measurement": "solubility (mole fraction)", "setting": "in acetonitrile, 323.15 K", "value": 0.166},
      {"measurement": "solubility (mole fraction)", "setting": "in anisole, 283.15 K", "value": 0.0323},
      {"measurement": "solubility (mole fraction)", "setting": "in anisole, 288.15 K", "value": 0.0425},
      {"measurement": "solubility (mole fraction)", "setting": "in anisole, 293.15 K", "value": 0.0519},
      {"measurement": "solubility (mole fraction)", "setting": "in anisole, 298.15 K", "value": 0.0626},
      {"measurement": "solubility (mole fraction)", "setting": "in anisole, 303.15 K", "value": 0.0737},
      {"measurement": "solubility (mole fraction)", "setting": "in anisole, 308.15 K", "value": 0.0858},
      {"measurement": "solubility (mole fraction)", "setting": "in anisole, 313.15 K", "value": 0.0999},
      {"measurement": "solubility (mole fraction)", "setting": "in anisole, 318.15 K", "value": 0.118},
      {"measurement": "solubility (mole fraction)", "setting": "in anisole, 323.15 K", "value": 0.139},
      {"measurement": "solubility (mole fraction)", "setting": "in isopropanol, 283.15 K", "value": 0.114},
      {"measurement": "solubility (mole fraction)", "setting": "in isopropanol, 288.15 K", "value": 0.142},
      {"measurement": "solubility (mole fraction)", "setting": "in isopropanol, 293.15 K", "value": 0.169},
      {"measurement": "solubility (mole fraction)", "setting": "in isopropanol, 298.15 K", "value": 0.198},
      {"measurement": "solubility (mole fraction)", "setting": "in isopropanol, 303.15 K", "value": 0.228},
      {"measurement": "solubility (mole fraction)", "setting": "in isopropanol, 308.15 K", "value": 0.258},
      {"measurement": "solubility (mole fraction)", "setting": "in isopropanol, 313.15 K", "value": 0.289},
      {"measurement": "solubility (mole fraction)", "setting": "in isopropanol, 318.15 K", "value": 0.323},
      {"measurement": "solubility (mole fraction)", "setting": "in isopropanol, 323.15 K", "value": 0.351},
      {"measurement": "solubility (mole fraction)", "setting": "in morpholine, 283.15 K", "value": 0.0094},
      {"measurement": "solubility (mole fraction)", "setting": "in morpholine, 288.15 K", "value": 0.0139},
      {"measurement": "solubility (mole fraction)", "setting": "in morpholine, 293.15 K", "value": 0.0185},
      {"measurement": "solubility (mole fraction)", "setting": "in morpholine, 298.15 K", "value": 0.0239},
      {"measurement": "solubility (mole fraction)", "setting": "in morpholine, 303.15 K", "value": 0.0293},
      {"measurement": "solubility (mole fraction)", "setting": "in morpholine, 308.15 K", "value": 0.0348},
      {"measurement": "solubility (mole fraction)", "setting": "in morpholine, 313.15 K", "value": 0.0404},
      {"measurement": "solubility (mole fraction)", "setting": "in morpholine, 318.15 K", "value": 0.0459},
      {"measurement": "solubility (mole fraction)", "setting": "in morpholine, 323.15 K", "value": 0.0503},
      {"measurement": "solubility (mole fraction)", "setting": "in toluene, 283.15 K", "value": 0.0166},
      {"measurement": "solubility (mole fraction)", "setting": "in toluene, 288.15 K", "value": 0.0209},
      {"measurement": "solubility (mole fraction)", "setting": "in toluene, 293.15 K", "value": 0.0264},
      {"measurement": "solubility (mole fraction)", "setting": "in toluene, 298.15 K", "value": 0.0337},
      {"measurement": "solubility (mole fraction)", "setting": "in toluene, 303.15 K", "value": 0.0415},
      {"measurement": "solubility (mole fraction)", "setting": "in toluene, 308.15 K", "value": 0.0522},
      {"measurement": "solubility (mole fraction)", "setting": "in toluene, 313.15 K", "value": 0.0641},
      {"measurement": "solubility (mole fraction)", "setting": "in toluene, 318.15 K", "value": 0.0784},
      {"measurement": "solubility (mole fraction)", "setting": "in toluene, 323.15 K", "value": 0.0941},
      {"measurement": "solubility (mole fraction)", "setting": "in water, 283.15 K", "value": 0.0011},
      {"measurement": "solubility (mole fraction)", "setting": "in water, 288.15 K", "value": 0.002},
      {"measurement": "solubility (mole fraction)", "setting": "in water, 293.15 K", "value": 0.0031},
      {"measurement": "solubility (mole fraction)", "setting": "in water, 298.15 K", "value": 0.0043},
      {"measurement": "solubility (mole fraction)", "setting": "in water, 303.15 K", "value": 0.0057},
      {"measurement": "solubility (mole fraction)", "setting": "in water, 308.15 K", "value": 0.0069},
      {"measurement": "solubility (mole fraction)", "setting": "in water, 313.15 K", "value": 0.0079},
      {"measurement": "solubility (mole fraction)", "setting": "in water, 318.15 K", "value": 0.0092},
      {"measurement": "solubility (mole fraction)", "setting": "in water, 323.15 K", "value": 0.0105}
    ]}
  ]
}
